One compound from ChEMBL document CHEMBL4340549, “Design, synthesis and biological evaluation of isochroman-4-one hybrids bearing piperazine moiety as antihypertensive agent candidates” (Bioorg Med Chem, 2019) can be followed below.

In data set [1] the test system is Rattus norvegicus. The data set can be described thus: Effect on heart rate in spontaneously hypertensive rat assessed as heart rate level at 80 mg/kg, po measured after 2 hrs by tail-cuff method (reference value: 413.2 +/- 15.2 bpm). The data set is classed as ADME, organism-based. The settings on record: in vivo.
In data set [2] the target is T1, Alpha-1B adrenergic receptor (Rattus norvegicus, UniProt P15823).
T1 sequence (P15823 whole entry): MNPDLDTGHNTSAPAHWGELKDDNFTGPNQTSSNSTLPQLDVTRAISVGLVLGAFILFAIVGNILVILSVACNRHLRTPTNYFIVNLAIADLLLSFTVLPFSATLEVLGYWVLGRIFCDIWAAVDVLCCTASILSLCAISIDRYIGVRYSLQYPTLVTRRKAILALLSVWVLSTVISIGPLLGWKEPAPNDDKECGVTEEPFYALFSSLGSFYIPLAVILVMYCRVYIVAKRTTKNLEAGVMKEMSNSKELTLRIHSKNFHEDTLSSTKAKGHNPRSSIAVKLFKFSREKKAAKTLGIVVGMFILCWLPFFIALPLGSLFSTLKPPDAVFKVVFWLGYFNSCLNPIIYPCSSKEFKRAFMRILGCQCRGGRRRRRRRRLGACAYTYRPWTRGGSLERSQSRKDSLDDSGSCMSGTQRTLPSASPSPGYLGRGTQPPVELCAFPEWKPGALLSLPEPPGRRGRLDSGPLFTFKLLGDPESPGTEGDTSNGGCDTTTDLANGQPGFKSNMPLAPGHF
The data set can be described thus: Antagonist activity at alpha-1b adrenergic receptor in SPF rat spleen assessed as inhibition of noradrenaline-induced contractions. In kind it is tissue-based. The following applies: read-out: pA2 (converted).

Data set [3] relates to Rattus norvegicus. The data set can be described thus: Antihypertensive activity in spontaneously hypertensive rat assessed as systolic arterial pressure at 80 mg/kg, po measured after 6 hrs by tail-cuff method (reference value: 179.36 +/- 18.33 mmHg). The data set is classed as functional.
Data set [4] concerns Rattus norvegicus. Kind of data set: Antihypertensive activity in spontaneously hypertensive rat assessed as diastolic arterial pressure at 80 mg/kg, po measured after 6 hrs by tail-cuff method (reference value: 137.54 +/- 9.2 mmHg). The data set is classed as functional.
For data set [5], the system named is Rattus norvegicus. The data set can be described thus: Antihypertensive activity in spontaneously hypertensive rat assessed as diastolic arterial pressure at 80 mg/kg, po measured after 2 hrs by tail-cuff method (reference value: 149.90 +/- 6 mmHg). In kind it is functional.
Data set [6] has as its system Rattus norvegicus. The data set can be described thus: Antihypertensive activity in spontaneously hypertensive rat assessed as diastolic arterial pressure at 80 mg/kg, po measured after 0 hrs by tail-cuff method (reference value: 149.50 +/- 5.4 mmHg). The data set is classed as functional.
Data set [7] has as its system Rattus norvegicus. The data set can be described thus: Antihypertensive activity in spontaneously hypertensive rat assessed as systolic arterial pressure at 80 mg/kg, po measured after 0 hrs by tail-cuff method (reference value: 186.10 +/- 4.55 mmHg). The data set is classed as functional.
Data set [8] has as its system Rattus norvegicus. The data set can be described thus: Effect on heart rate in spontaneously hypertensive rat assessed as heart rate level at 80 mg/kg, po measured after 1 hr by tail-cuff method (reference value: 415.25 +/- 14.7 bpm). In kind it is ADME, organism-based. The following applies: in vivo.
The test system of data set [9] is Rattus norvegicus. The data set can be described thus: Antihypertensive activity in spontaneously hypertensive rat assessed as diastolic arterial pressure at 80 mg/kg, po measured after 1 hr by tail-cuff method (reference value: 147.33 +/- 9.8 mmHg). In kind it is functional.

Structures are written as SMILES.

As for `COc1cc2c(cc1OCC(O)CN1CCN(C(=O)C3CCCO3)CC1)C(=O)C(C)OC2` (centres undefined), the Activity in the data set with Rattus norvegicus [1] is listed as 408.14 bpm; with Rattus norvegicus [3], 157.46 mmHg; in the data set on Rattus norvegicus [4] it was 132.51 mmHg; with Rattus norvegicus [5], 131.86 mmHg; in the data set on Rattus norvegicus [6] it was 156.23 mmHg; in the data set on Rattus norvegicus [7], 187.64 mmHg. Besides, the Activity was 409.3 bpm in the data set on Rattus norvegicus [8] and 144.15 mmHg in the data set with Rattus norvegicus [9]. The Kb in data set [2] was 35.5 nM.
